Measured values published in patent US8883846B2, “Synthesis of bicyclic compounds and method for their use as therapeutic agents” (priority 2010, dated 2014).
Several values for one entry are separate records, joined by “and”; a condition that tells them apart may be missing. Identical values can stand only once. Like-named read-outs stand apart in the source and are kept apart here.

Assays:
[1] = molecular target: neuraminidase of NP40-inactivated influenza A/Brisbane/59/2007(H1N1) (Influenza A virus, UniProt D5F1R0); experiment: In vitro neuraminidase assay vs. NP40-inactivated influenza virus; type: biochemical
[2] = test system: neuraminidase; conditions: background statement; cited from earlier work
[3] = molecular target: recombinant H1N1 neuraminidase (Influenza A virus (strain A/Puerto Rico/8/1934 H1N1), UniProt P03468); experiment: biochemical; type: biochemical
[4] = NP40-inactivated influenza A/Brisbane/59/2007(H1N1), read-out: IC50
[5] = NP40-inactivated virus, Lineweaver-Burk analysis

recombinant H1N1 neuraminidase, sequence (P03468 36-454 limits assumed): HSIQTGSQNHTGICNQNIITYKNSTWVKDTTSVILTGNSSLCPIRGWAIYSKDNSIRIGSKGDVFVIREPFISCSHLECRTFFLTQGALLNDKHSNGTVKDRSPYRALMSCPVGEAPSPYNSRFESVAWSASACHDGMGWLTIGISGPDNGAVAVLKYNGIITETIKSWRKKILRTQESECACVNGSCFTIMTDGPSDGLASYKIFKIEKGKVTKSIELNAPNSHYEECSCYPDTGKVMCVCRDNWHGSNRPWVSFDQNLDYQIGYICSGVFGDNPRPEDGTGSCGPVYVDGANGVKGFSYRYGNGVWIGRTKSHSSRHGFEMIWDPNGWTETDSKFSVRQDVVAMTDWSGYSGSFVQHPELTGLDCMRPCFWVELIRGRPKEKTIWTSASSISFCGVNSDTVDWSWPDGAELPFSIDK
neuraminidase of NP40-inactivated influenza A/Brisbane/59/2007(H1N1), sequence (D5F1R0 1-470): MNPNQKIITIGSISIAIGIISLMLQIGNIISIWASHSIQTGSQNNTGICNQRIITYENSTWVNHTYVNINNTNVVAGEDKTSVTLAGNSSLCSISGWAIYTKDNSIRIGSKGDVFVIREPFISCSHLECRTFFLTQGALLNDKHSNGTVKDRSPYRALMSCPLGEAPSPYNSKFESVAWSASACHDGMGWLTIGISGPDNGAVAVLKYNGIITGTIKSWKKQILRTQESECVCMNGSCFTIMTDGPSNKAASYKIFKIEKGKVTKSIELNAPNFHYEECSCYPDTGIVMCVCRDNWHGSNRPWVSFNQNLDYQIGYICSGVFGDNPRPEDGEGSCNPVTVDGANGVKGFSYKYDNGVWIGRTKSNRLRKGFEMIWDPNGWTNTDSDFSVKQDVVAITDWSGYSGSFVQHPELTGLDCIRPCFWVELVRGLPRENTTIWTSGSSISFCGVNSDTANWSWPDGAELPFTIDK

For `CC(=O)N[C@H]1CS(=O)(=O)[C@H]2[C@@H]1[C@H](N)C[C@@H]2C(=O)O` [Compound 31], the IC50 [1, 4] was 0.092 mM and the “Inhibition Mode” value [1, 5] was “competitive”.

With `CC(=O)N[C@H]1CS(=O)(=O)[C@H]2[C@@H]1[C@H](NC(=N)N)C[C@@H]2C(=O)O` [Compound 32] the “Inhibition Mode” value [1] was “competitive”, the Ki [1] was 5 µM and the IC50 ([1]; IC50) was 0.03 mM.

For `CCOC(=O)C1=C[C@@H](OC(CC)CC)[C@H](NC(C)=O)[C@@H](N)C1` [oseltamivir], the “effective concentration as neuraminidase inhibitor” value [2] is given as “around 1 nM”.

In the case of `CCC(CC)[C@H](NC(C)=O)[C@@H]1[C@H](O)[C@@H](C(=O)O)C[C@H]1N=C(N)N` [peramivir], the “potency relative to oseltamivir” value [2] is listed as “roughly ten-fold”.

Compound `C[C@@H]1C[C@](O)(C(=O)O)[C@H]2C[C@H](Cc3ccccc3)S(=O)(=O)[C@@H]12` [Compound 21] has an IC50 [3] greater than 10 mM.

For `C[C@@H]1C[C@](O)(C(=O)O)[C@H]2CCS(=O)(=O)[C@@H]12` [Compound 20], the IC50 [3] was 4 mM, the “Inhibition Mode” value [3] was “mixed” and the “inhibition of commercially available recombinant H1N1 neuraminidase” value [3] was “dose-dependent inhibition”.

In the case of `N=C(N)N[C@@H]1C[C@](O)(C(=O)O)[C@H]2CCS(=O)(=O)[C@@H]12` [Compound 27], the IC50 [1, 4] is reported as 3.7 mM and 3.8 mM, the “Inhibition Mode” value [1, 5] is reported as “competitive” and the Ki ([1]; NP40-inactivated virus, estimated from Km versus inhibitor concentration, read-out: Ki) is reported as 1000 µM.
